Laboratory results from patent US11919965B2, “Methods of treating multiple myeloma with bispecific anti-BCMA x anti-CD3 antibodies” (Regeneron Pharmaceuticals, Inc., priority 2019, dated 2024).

Tests used:
[1] = test system: surface BCMA on Molp8 cells; assay: FACS surface BCMA after overnight incubation with anti-BCMA antibodies or DAPT; type: cell-based, human
Protocol: (§1) Flow cytometric analysis was utilized to determine the impact of overnight incubation of multiple myeloma cell lines with anti-BCMA antibodies on the level of surface BCMA. […] After 18 hours, wells were washed with cold FACS wash (PBS+1% filtered FBS) and resuspended in 667 nM of the same anti-BCMA antibody in cold stain buffer (Miltenyi 130-091-221) for 30 minutes on ice. After incubation, the cells were washed twice with cold FACS wash (PBS+1% filtered FBS) and bound antibody was detected by incubating with the appropriate anti-human secondary antibody (anti-hlgG or anti-HIS) on ice for an additional 30-45 minutes. After incubation, cells were washed, re-suspended in 200 μL cold PBS containing 1% filtered FBS and analyzed by flow cytometry on a BD FACS Canto II. Fold increase in staining was calculated by dividing the MFI of stained cells previously incubated overnight in BCMA abs or DAPT by the MFI of stained cells that were incubated overnight in media only.

[2] = test system: surface BCMA on MM1S cells; assay: as above; type: cell-based, human; conditions: stained with the anti-BCMA antibody
Protocol: as §1

[3] = test system: surface BCMA on NCI-H929 cells; assay: as above; type: cell-based, human
Protocol: as §1

[4] = test system: surface BCMA on U266 cells; assay: as above; type: cell-based, human
Protocol: as §1

[5] = test system: MC38/BCMA tumors; assay: Syngenic MC38/BCMA tumor model in CD3-humanized mice, combination with anti-PD-1 (Example 20); type: in vivo, mouse; conditions: for Average Tumor Size (mm3) ± SEM on Day 3 / Average Tumor Size (mm3) ± SEM on Day 7 / Average Tumor Size (mm3) ± SEM on Day 11 / Average Tumor Size (mm3) ± SEM on Day 14 / Average Tumor Size (mm3) ± SEM on Day 18 / Average Tumor Size (mm3) ± SEM on Day 21 / Average Tumor Size (mm3) ± SEM on Day 24 / Average Tumor Size (mm3) ± SEM on Day 28: doses on days 3, 7, 11
Protocol: (§2) Implantation and measurement of syngenic tumors: C57BL/6 mice that express human CD3deg in place of murine CD3deg (CD3-humanized mice) were subcutaneously implanted with 1×10^6 MC38 colon carcinoma cells that have been engineered to express full-length human BCMA (MC38/BCMA).
(§3) The mice were administered these Abs twice more on days 7 and 11 for a total of three doses, and tumor growth was assessed throughout the experiment.
(§4) Calculation of syngenic tumor growth and inhibition: In order to determine tumor volume by external caliper, the greatest longitudinal diameter (length in mm) and the greatest transverse diameter (width in mm) were determined. Tumor volumes based on caliper measurements were calculated by the formula: Volume (mm^3)=(length× width^2)/2.

[6] = test system: MC38/BCMA tumors; assay: Syngenic MC38/BCMA tumor model in CD3-humanized mice, combination with anti-PD-1, second experiment (Example 21); type: in vivo, mouse
Protocol: as §2, §3, §4

[7] = molecular target: T1, human BCMA-MFC (Homo sapiens, UniProt Q02223); assay: SPR (Biacore 4000) binding kinetics at 25° C.
T1 construct: extracellular domain of human BCMA expressed with C-terminal mFc tag (human BCMA-MFC)
T1 sequence (Q02223 with tags, fused parts or gaps): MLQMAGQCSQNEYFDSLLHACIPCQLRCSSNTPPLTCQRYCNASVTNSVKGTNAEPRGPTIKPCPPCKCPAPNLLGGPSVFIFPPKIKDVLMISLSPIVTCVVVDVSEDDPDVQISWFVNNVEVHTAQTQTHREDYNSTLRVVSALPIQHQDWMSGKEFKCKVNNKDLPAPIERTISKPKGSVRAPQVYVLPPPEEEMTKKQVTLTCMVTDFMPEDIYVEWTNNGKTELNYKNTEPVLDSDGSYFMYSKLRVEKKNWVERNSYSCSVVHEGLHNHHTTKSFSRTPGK
Protocol: (§5) The CM5 Biacore sensor surface was derivatized by amine coupling with a monoclonal mouse anti-human Fc antibody (GE, #BR-1008-39) to capture purified anti-BCMA mAbs and anti-BCMA×anti-CD3 bispecific mAbs. All Biacore binding studies were performed in a buffer composed of 0.01M HEPES pH 7.4, 0.15M NaCl, 3 mM EDTA, 0.05% v/v Surfactant P20 (HBS-ET running buffer). […] Antigen samples were then injected over the anti-BCMA and anti-BCMA×anti-CD3 bispecific mAbs captured surfaces at a flow rate of 30 μL/minute. Antibody-reagent association was monitored for 5 minutes while dissociation in HBS-ET running buffer was monitored for 10 minutes. All of the binding kinetics experiments were performed at 25° C. Kinetic association (ka) and dissociation (kd) rate constants were determined by fitting the real-time sensorgrams to a 1:1 binding model using Scrubber 2.0c curve fitting software. Binding dissociation equilibrium constants (KD) and dissociative half-lives (t1/2) were calculated from the kinetic rate constants as: […]

[8] = molecular target: T2, mouse BCMA-MFC (Mus musculus, UniProt O88472); assay: SPR (Biacore 4000) binding kinetics at 25° C.
T2 construct: 30 nM BCMA expressed with C-terminal mFc tag (mouse BCMA-MFC)
T2 sequence (O88472 with tags, fused parts or gaps): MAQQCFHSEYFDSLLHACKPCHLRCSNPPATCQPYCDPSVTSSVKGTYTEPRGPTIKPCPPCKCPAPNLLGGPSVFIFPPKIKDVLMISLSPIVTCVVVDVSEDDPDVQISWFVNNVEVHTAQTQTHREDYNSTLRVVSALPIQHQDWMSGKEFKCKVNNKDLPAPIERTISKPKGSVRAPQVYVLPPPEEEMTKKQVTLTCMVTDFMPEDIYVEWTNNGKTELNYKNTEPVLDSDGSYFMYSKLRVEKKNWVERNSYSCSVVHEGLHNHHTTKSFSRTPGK
Protocol: as §5

[9] = test system: monkey BCMA-MFC; assay: SPR (Biacore 4000) binding kinetics at 25° C.
Sequence of monkey BCMA-MFC (as listed by the source): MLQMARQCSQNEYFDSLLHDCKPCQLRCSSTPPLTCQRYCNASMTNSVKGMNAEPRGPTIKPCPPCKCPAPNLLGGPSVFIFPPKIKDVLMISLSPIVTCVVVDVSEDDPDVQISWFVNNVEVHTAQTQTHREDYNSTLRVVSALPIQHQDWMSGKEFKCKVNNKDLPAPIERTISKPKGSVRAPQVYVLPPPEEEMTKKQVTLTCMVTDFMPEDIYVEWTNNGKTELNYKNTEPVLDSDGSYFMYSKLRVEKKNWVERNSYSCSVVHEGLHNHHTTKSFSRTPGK
Protocol: as §5

[10] = molecular target: monkey BCMA-MMH; assay: SPR (Biacore 4000) binding kinetics at 25° C.; conditions: for 90 nM mfBCMA.mmh Bind (RU): antibody captured on anti-human Fc
Sequence of monkey BCMA-MMH (as listed by the source): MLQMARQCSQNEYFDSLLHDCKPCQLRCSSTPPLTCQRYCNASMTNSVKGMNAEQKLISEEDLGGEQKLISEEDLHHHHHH
Protocol: as §5

[11] = molecular target: T3, human BCMA-MMH (Homo sapiens, UniProt Q02223); assay: SPR (Biacore 4000) binding kinetics at 25° C.
T3 construct: extracellular domain of human BCMA expressed with C-terminal myc-myc-hexahistidine tag (human BCMA-MMH)
T3 sequence (Q02223 with tags, fused parts or gaps): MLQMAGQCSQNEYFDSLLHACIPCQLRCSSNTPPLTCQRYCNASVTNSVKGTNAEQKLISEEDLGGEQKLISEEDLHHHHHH
Protocol: as §5

[12] = bispecific 0.04 mg/kg + second antibody 4 mg/kg
[13] = bispecific 0.24 mg/kg + second antibody 4 mg/kg
[14] = bispecific 0.04 mg/kg + partner antibody 4 mg/kg
[15] = bispecific 0.4 mg/kg + second antibody 4 mg/kg

Molecule: C[C@H](NC(=O)Cc1cc(F)cc(F)c1)C(=O)N[C@H](C(=O)OC(C)(C)C)c1ccccc1 [DAPT]
- fold increase of BCMA levels after overnight DAPT, range over detecting antibodies [1]: 2.4-8.6 fold
- MFI fold change over cells incubated in media only, Average [2]: 11.9 fold
- fold increase of BCMA levels after overnight DAPT, range over detecting antibodies [3]: 2.3-4 fold
- fold increase of BCMA levels after overnight DAPT, range over detecting antibodies [4]: 5.3-9.0 fold

Molecule: REGN5458 + Isotype: combination of REGN5458 with isotype control Ab (Clone 2A3)
- Average Tumor Size (mm3) ± SEM on Day 3 [5, 12]: 15.62 ± 1.61 mm3
- Average Tumor Size (mm3) ± SEM on Day 3 [5, 13]: 13.13 ± 3.12 mm3
- Average Tumor Size (mm3) ± SEM on Day 7 [5, 12]: 37.98 ± 3.93 mm3
- Average Tumor Size (mm3) ± SEM on Day 7 [5, 13]: 29.27 ± 5.00 mm3
- Average Tumor Size (mm3) ± SEM on Day 11 [5, 12]: 112.53 ± 17.39 mm3
- Average Tumor Size (mm3) ± SEM on Day 11 [5, 13]: 36.63 ± 14.89 mm3
- Average Tumor Size (mm3) ± SEM on Day 14 [5, 12]: 438.16 ± 59.56 mm3
- Average Tumor Size (mm3) ± SEM on Day 14 [5, 13]: 224.33 ± 47.04 mm3
- Average Tumor Size (mm3) ± SEM on Day 18 [5, 12]: 1040.12 ± 61.95 mm3
- Average Tumor Size (mm3) ± SEM on Day 18 [5, 13]: 515.15 ± 115.38 mm3
- Average Tumor Size (mm3) ± SEM on Day 21 [5, 12]: 2133.12 ± 129.26 mm3
- Average Tumor Size (mm3) ± SEM on Day 21 [5, 13]: 1225.47 ± 289.39 mm3
- Average Tumor Size (mm3) ± SEM on Day 24 [5, 12]: 3648.37 ± 536.71 mm3
- Average Tumor Size (mm3) ± SEM on Day 24 [5, 13]: 1493.26 ± 973.01 mm3
- Average Tumor Size (mm3) ± SEM on Day 28 [5, 12]: All Animals Euthanized
- Average Tumor Size (mm3) ± SEM on Day 28 [5, 13]: 1371.17 ± 0.00 mm3
- Number of Mice Tumor-Free at End of Experiment (Day 28) [5, 14]: 0 of 7
- Number of Mice Tumor-Free at End of Experiment (Day 28) ([5]; bispecific 0.24 mg/kg + partner antibody 4 mg/kg): 0 of 6
- Average Tumor Size (mm3) ± SEM on Day 3 [6, 12]: 12.41 ± 2.56 mm3
- Average Tumor Size (mm3) ± SEM on Day 3 [6, 15]: 11.22 ± 0.68 mm3
- Average Tumor Size (mm3) ± SEM on Day 6 [6, 12]: 38.79 ± 3.52 mm3
- Average Tumor Size (mm3) ± SEM on Day 6 [6, 15]: 16.11 ± 1.27 mm3
- Average Tumor Size (mm3) ± SEM on Day 10 [6, 12]: 116.32 ± 19.99 mm3
- Average Tumor Size (mm3) ± SEM on Day 10 [6, 15]: 24.27 ± 6.74 mm3
- Average Tumor Size (mm3) ± SEM on Day 13 [6, 12]: 319.91 ± 53.05 mm3
- Average Tumor Size (mm3) ± SEM on Day 13 [6, 15]: 50.93 ± 20.00 mm3
- Average Tumor Size (mm3) ± SEM on Day 18 [6, 12]: 1314.27 ± 211.22 mm3
- Average Tumor Size (mm3) ± SEM on Day 18 [6, 15]: 248.51 ± 107.21 mm3
- Average Tumor Size (mm3) ± SEM on Day 21 [6, 12]: 2446.35 ± 395.48 mm3
- Average Tumor Size (mm3) ± SEM on Day 21 [6, 15]: 453.43 ± 174.75 mm3
- Average Tumor Size (mm3) ± SEM on Day 25 [6, 12]: 2411.64 ± 451.96 mm3
- Average Tumor Size (mm3) ± SEM on Day 25 [6, 15]: 661.70 ± 331.60 mm3
- Number of Mice Tumor-Free at End of Experiment (Day 25) [6, 14]: 0 of 10
- Number of Mice Tumor-Free at End of Experiment (Day 25) ([6]; bispecific 0.4 mg/kg + partner antibody 4 mg/kg): 2 of 10

B1: REGN4514: anti-BCMA antibody, HCVR/LCVR SEQ ID NOs 34/42 (antibody, V domains shown)
VH: EVQLVESGGGLVQPGRSLRLSCAASGFTFDDYAMHWVRQAPGKGLEWVSGISWNSGNMGYADSVKGRFTISRDNAKNSLFLQMHSLRAEDTAFYYCAKVRLTAFDFWGQGTLVTVSS
VL: DIQMTQSPSSLSASVGDRVTITCRTSQSIGNYLNWFQQKPGKAPKLLIYTASSLQNGVPSRFTGSGSGTDFTLTISSLQPEDFVIYYCQQSFSTPYTFGQGTKLEIK
- ka [7]: 1.07e+06 M⁻¹ s⁻¹
- kd [7]: 4.53e-05 s⁻¹
- ka [8]: 397000 M⁻¹ s⁻¹
- kd [8]: 0.000269 s⁻¹
- ka [9]: 492000 M⁻¹ s⁻¹
- kd [9]: 0.00724 s⁻¹
- Kd [10]: > 90 nM
- 90 nM mfBCMA.mmh Bind (RU) [10]: 1.1 RU
- ka [11]: 1.06e+06 M⁻¹ s⁻¹
- kd [11]: 0.00285 s⁻¹

B2: mAb16711: anti-BCMA antibody, HCVR/LCVR SEQ ID NOs 2/10 (antibody, V domains shown)
VH: QVQLVESGGGVVQPGRSLRLSCAASGFTFSTYGIHWVRQAPGKGLEWVAVILHDGSSNYYAESVKGRFIISRDNSKNTLYLQMNSLRAEDTALYYCTKRYSEAAGPNWFDPWGQGTLVTVSS
VL: DIQMTQSPSSVSASVGDRVTITCRASRGISSWLAWYQQKPGKAPKLLIHAASSLQSGVPSRFSGSGSGTDFTLTISSLQPEDFATYYCQQAISFPFTFGPGTKVDIK
- ka [7]: 1.85e+06 M⁻¹ s⁻¹
- kd [7]: 0.00019 s⁻¹
- ka [8]: 1.07e+06 M⁻¹ s⁻¹
- kd [8]: 0.0011 s⁻¹
- Kd [9]: > 30 nM
- ka [11]: 2.01e+06 M⁻¹ s⁻¹
- kd [11]: 0.00347 s⁻¹

B3: REGN4515: anti-BCMA antibody, HCVR/LCVR SEQ ID NOs 50/58 (antibody, V domains shown)
VH: QVQLVESGGGLVKPGGSLRLSCAASGFTFSDYYISWIRQAPGKGLEWVSYISSSGSSIKYADSVKGRFTISRDNAKNSLYLQMNSLRAEDTAVYYCAREGGNYGMDVWGQGTTVTVSS
VL: DIQMTQSPSSVSASVGDRVTITCRASQGINNWLVWYQQKPGKAPKLLIYAATSLQSGVPSRFSGSGSGTDFTLTISSLQPEDFATYYCQQANSFPPTFGQGTKLEIK
- ka [7]: 1.41e+06 M⁻¹ s⁻¹
- kd [7]: 8.95e-05 s⁻¹
- ka [8]: 947000 M⁻¹ s⁻¹
- kd [8]: 0.00418 s⁻¹
- ka [9]: 2.13e+06 M⁻¹ s⁻¹
- kd [9]: 0.00716 s⁻¹
- Kd [10]: > 90 nM
- 90 nM mfBCMA.mmh Bind (RU) [10]: 1.9 RU
- ka [11]: 869000 M⁻¹ s⁻¹
- kd [11]: 0.00247 s⁻¹
